Data published in patent US11541122B2, “Glucose sensitive insulins and uses thereof” (Ziylo Limited, priority 2018, dated 2023).

Assay: Glucose affinity of macrocycles by fluorescence titration
Assay type: binding
Conditions: pH 7.4, 10 mM phosphate buffer
Experimental: The optic properties (fluorescence) of the given macrocycle changes between the unbound state, and the glucose-bound state. Titrating the macrocycle with glucose in the relevant glucose concentration range, and measuring the changes in fluorescence of the system can thus give binding curves for binding to glucose, which can be used to determine the glucose binding constant, Ka (and the displacement constant, Kd).
All solutions were maintained at pH 7.4 using 10 mM Phosphate buffer solution. The titration was performed using a Horiba Scientific Duetta fluorescence spectrometer with an excitation wavelength of 310 nm and monitoring emission from 320-550 nm. The excitation and emission slit width/band widths were set to 5 nm. All points were acquired using a 0.5 second integration time and 5 accumulations.
2 mg of compound 6d (Mw=3540 g/mol) was dissolved in […] of ultrapure H2O (pH 7.4, 10 mM PB). The purity of Compound 6d was previously assayed by 1H NMR spectroscopy using a known concentration of DMF in D2O as an internal standard. The purity was calibrated at 80% (40 μM). This was then diluted by a four-fold to give a 10 μM solution of Compound 6d.
D-glucose (180.16 mg) was dissolved in 1 mL 10 mM PB and allowed to stand overnight to allow for equilibration of the a and 13 anomers. This was sequentially diluted to give a 20 mM stock solution of D-glucose. 250 μL of this solution was combined with 250 μL Compound 6d stock solution to give a 10 mM D-glucose/5 μM Compound 6d.
In a 3 mL cuvette, 1500 μL of Solution 1 was diluted with 1500 μL of 10 mM phosphate buffer to give a 5 μM solution. This was titrated with Solution 2. For each addition of titrant solution (Solution 2), the equivalent volume was removed from the cuvette prior to addition to keep the cell volume constant (3000 μL). Each addition was stirred for 1 minute then stirring stopped to allow 1 minute for the sample to equilibrate before acquisition. Additions (in μL): 0, 10, 10, 10, 10, 10, 20, 20, 50, 100, 100.

| Structure (SMILES) | Kd (measured similarly to compound 6d) [µM] | Kd (glucose), calculated as 1/Ka (D-glucose titration) [µM] | Calculated Ka (glucose binding constant, 1:1 binding model) (D-glucose titration, 5 μM macrocycle, excitation 310 nm) [M⁻¹] |
| --- | --- | --- | --- |
| CCc1c2c(CC)c3c(CC)c1CNC(=O)Nc1ccc(C(=O)NC(CCC(=O)O)(CCC(=O)O)CCC(=O)O)cc1NC(=O)NCc1c(CC)c(c(CC)c(c1CC)CNC(=O)Nc1cc(C(=O)NC(CCC(=O)O)(CCC(=O)O)CCC(=O)O)ccc1NC(=O)NC3)CNC(=O)Nc1cc(C(=O)NCCOCCOCCOCCOCCN=[N+]=[N-])ccc1NC(=O)NC2 [compound 24, G1 Macrocycle PEG5 Azide] | 131 |  |  |
| CCc1c2c(CC)c3c(CC)c1CNC(=O)Nc1ccc(C(=O)NC(CCC(=O)NC(CCC(=O)O)(CCC(=O)O)CCC(=O)O)(CCC(=O)NC(CCC(=O)O)(CCC(=O)O)CCC(=O)O)CCC(=O)NC(CCC(=O)O)(CCC(=O)O)CCC(=O)O)cc1NC(=O)NCc1c(CC)c(c(CC)c(c1CC)CNC(=O)Nc1cc(C(=O)NC(CCC(=O)NC(CCC(=O)O)(CCC(=O)O)CCC(=O)O)(CCC(=O)NC(CCC(=O)O)(CCC(=O)O)CCC(=O)O)CCC(=O)NC(CCC(=O)O)(CCC(=O)O)CCC(=O)O)ccc1NC(=O)NC3)CNC(=O)Nc1cc(C(=O)NCCOCCOCCOCCN=[N+]=[N-])ccc1NC(=O)NC2 [compound 6d] |  | 68 | 14751.48 ± 637.3 |
